# Active and inactive are the calls of the source.
# Key:
# Leucine aminopeptidase = target: T1, Leucine aminopeptidase (Plasmodium falciparum 3D7, UniProt Q8IL11); test: P. falciparum M17LAP inhibitors, primary screen, biochemical, fluorogenic H-Leu-NHMec substrate, 1536-well (AID 1619); assay type: functional
# T1 sequence (Q8IL11 whole entry): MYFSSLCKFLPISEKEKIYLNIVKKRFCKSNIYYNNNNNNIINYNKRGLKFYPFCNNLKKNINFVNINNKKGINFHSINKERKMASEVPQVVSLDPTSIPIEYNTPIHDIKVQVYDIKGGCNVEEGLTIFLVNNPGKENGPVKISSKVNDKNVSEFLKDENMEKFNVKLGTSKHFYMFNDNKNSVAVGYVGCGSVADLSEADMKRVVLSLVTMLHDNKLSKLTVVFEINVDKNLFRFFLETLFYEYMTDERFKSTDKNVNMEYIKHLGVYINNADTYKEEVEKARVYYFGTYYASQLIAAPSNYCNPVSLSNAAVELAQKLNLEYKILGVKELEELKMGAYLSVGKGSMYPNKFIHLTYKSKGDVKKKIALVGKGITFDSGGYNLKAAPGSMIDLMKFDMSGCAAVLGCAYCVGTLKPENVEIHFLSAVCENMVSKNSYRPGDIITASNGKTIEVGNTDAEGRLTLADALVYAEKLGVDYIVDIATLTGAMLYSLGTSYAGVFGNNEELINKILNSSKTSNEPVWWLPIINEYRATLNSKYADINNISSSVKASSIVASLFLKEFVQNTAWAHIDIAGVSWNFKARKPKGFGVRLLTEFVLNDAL
# Beta-galactosidase = Beta-galactosidase (Escherichia coli, UniProt Q8VNN2); test: PubChem AID 485352; assay type: functional
# [1] = target: T2, Type-1 angiotensin II receptor (Homo sapiens, UniProt P30556); test: AT1 receptor antagonists, dose response, selectivity assay for APJ receptor antagonist project, cell-based, uHTS hits (AID 463214); assay type: functional;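 note: antagonist potency against angiotensin II stimulated AT1 response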
# T2 sequence (P30556 whole entry): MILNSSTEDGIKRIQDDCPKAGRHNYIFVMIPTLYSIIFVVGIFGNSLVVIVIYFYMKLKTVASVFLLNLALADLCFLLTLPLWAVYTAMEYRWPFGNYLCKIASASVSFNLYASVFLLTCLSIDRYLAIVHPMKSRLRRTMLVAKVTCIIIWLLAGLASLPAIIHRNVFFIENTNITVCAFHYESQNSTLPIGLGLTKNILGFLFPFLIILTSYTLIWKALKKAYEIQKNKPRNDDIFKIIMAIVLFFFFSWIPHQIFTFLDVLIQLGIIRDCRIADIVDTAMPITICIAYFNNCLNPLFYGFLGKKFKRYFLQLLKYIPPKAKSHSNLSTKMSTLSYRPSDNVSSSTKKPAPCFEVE
# [2] = target: Heat shock protein HSP 90-alpha (Homo sapiens, UniProt P07900); assay type: functional, organism-based
# [3] = Shn3 3'UTR reporter inhibitors, dose response, cell-based, Clone20 osteoblasts, firefly luciferase, cherry-picked (AID 624132); assay type: functional;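 note: firefly luciferase luminescence from reporter carrying the Shn3 3'UTR in osteoblasts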
# [4] = HepG2 cell cytotoxicity, dose response, cytotoxicity control for Shn3 inhibitor project, CellTiter-Glo, cherry-picked (AID 624134); assay type: functional, cell-based
# [5] = control 3'UTR Renilla luciferase suppression, dose response, counter-screen for Shn3 inhibitor project, cell-based, Clone20-Shn3RL, cherry-picked (AID 624133); assay type: functional
# Protein skinhead-1 = target: T3, Protein skinhead-1 (Caenorhabditis elegans, UniProt P34707); assay type: functional
# T3 sequence (P34707 whole entry): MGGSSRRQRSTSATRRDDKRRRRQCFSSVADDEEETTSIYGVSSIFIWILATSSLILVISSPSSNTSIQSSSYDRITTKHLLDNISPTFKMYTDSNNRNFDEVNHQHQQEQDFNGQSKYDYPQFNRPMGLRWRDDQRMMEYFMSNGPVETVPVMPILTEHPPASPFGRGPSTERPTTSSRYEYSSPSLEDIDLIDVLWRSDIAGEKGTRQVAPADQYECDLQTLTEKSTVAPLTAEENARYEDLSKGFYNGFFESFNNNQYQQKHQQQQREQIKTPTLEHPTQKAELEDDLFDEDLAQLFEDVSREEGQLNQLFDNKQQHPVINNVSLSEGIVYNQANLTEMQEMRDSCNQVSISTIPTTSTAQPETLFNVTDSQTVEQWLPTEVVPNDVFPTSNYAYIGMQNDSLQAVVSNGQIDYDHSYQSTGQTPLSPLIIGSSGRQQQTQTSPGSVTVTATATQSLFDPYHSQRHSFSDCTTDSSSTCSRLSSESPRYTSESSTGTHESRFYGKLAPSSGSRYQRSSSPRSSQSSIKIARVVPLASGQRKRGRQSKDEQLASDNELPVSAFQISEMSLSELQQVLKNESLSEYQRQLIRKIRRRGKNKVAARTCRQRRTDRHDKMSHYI
# [6] = microbe, parasite or virus in culture; assay type: functional; conditions: Mycobacterium tuberculosis
# [7] = intracellular Trypanosoma cruzi inhibitors in host cells – cell-based, plate reader, cherry-pick samples, set 3, dose response (AID 651818); assay type: functional;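 note: compounds incubated with infected cells for about four days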
# Paired box protein Pax-8 = Paired box protein Pax-8 (Homo sapiens, UniProt Q06710); test: inhibitors of PAX8-driven TPO luciferase reporter, dose response, RMG-I cells, cherry-pick (AID 687027); assay type: functional, cell-based;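 note: luciferase reporter driven by Pax8 target thyroperoxidase promoter measured by SteadyGlo luminescence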
# [8] = cytotoxicity in OVCAR8 ovarian cancer cells, dose response, PAX8 project, cell-based, plate reader, dry powder samples (AID 743197); assay type: functional; conditions: OVCAR-8
# [9] = NIH:OVCAR-3 ovarian cancer cell cytotoxicity, dose response, PAX8 inhibitor project, plate reader, dry powder samples (AID 743044); assay type: functional, cell-based
# Cytochrome P450 2C19 = Cytochrome P450 2C19 (Homo sapiens, UniProt P33261); test: Cytochrome panel assay with activity outcomes. Panel member name: p450-cyp2c19 Compounds with AC50 equal or less than 10 uM are considered active; assay type: functional; conditions: read-out: AC50
# Estrogen receptor beta = Estrogen receptor beta (Homo sapiens, UniProt Q92731);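 note: recombinant ER-beta bound to coactivator SRC1 peptide in presence of estradiol agonist; inhibitors block coactivator peptide binding and lower the FRET signal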
# [10] = growth suppression of PTEN-null colon cells, dose response, cell-based, HCT116 PTEN knockout (AID 1047); assay type: functional;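 note: HCT116 colon tumor cells with PTEN knocked out; cells exposed to compound for 60 hours before readout; potency for loss of cell viability measured by luminescence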
# [11] = growth suppression of beta-catenin-knockout colon cells, dose response, cell-based, HCT116, human colon tumor (AID 1045); assay type: functional;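 note: HCT116 colon tumor cells with beta catenin knocked out; cells exposed to compound for 60 hours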
# [12] = inhibitors of intracellular T. cruzi replication, confirmation, NIH3T3 host cells, beta-gal luminescence (AID 2044); assay type: functional, cell-based;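 note: intracellular parasites grown in NIH/3T3 mouse fibroblasts as host cells; luminescent beta-galactosidase reporter signal from transgenic T. cruzi replicating inside host cells; inhibitors lower the luminescence signal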
# [13] = cytotoxicity toward NIH3T3 fibroblasts, dose response, counter-screen, cell-based, ATP luminescence, mouse fibroblasts (AID 2010); assay type: functional;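 note: cells exposed to compound for about 90 hours before reading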
# [14] = HEp-2 cell cytotoxicity, dose response, cytotoxicity control for RSV inhibitor project, HTS (AID 2410); assay type: functional; conditions: human respiratory syncytial virus
# [15] = THP-1 cell cytotoxicity, dose response, cytotoxicity control for Vif-APOBEC3G degradation inhibitor project, THP-1 cells (AID 1117359); assay type: functional; conditions: Human immunodeficiency virus 1, THP-1
# [16] = target: FAD-linked sulfhydryl oxidase ALR (Homo sapiens, UniProt P55789); test: inhibitors of human ALR sulfhydryl oxidase, dose response, biochemical, H2O2 detection, luminescence, cherry-pick (AID 493248)
# [17] = target: T4, Rac GTPase-activating protein 1 (Homo sapiens, UniProt Q9H0H5); test: MgcRacGAP GTPase-activating activity inhibitors, confirmation, biochemical, ADP Hunter fluorescence, primary and confirmatory (AID 624330); assay type: functional
# T4 sequence (Q9H0H5 whole entry): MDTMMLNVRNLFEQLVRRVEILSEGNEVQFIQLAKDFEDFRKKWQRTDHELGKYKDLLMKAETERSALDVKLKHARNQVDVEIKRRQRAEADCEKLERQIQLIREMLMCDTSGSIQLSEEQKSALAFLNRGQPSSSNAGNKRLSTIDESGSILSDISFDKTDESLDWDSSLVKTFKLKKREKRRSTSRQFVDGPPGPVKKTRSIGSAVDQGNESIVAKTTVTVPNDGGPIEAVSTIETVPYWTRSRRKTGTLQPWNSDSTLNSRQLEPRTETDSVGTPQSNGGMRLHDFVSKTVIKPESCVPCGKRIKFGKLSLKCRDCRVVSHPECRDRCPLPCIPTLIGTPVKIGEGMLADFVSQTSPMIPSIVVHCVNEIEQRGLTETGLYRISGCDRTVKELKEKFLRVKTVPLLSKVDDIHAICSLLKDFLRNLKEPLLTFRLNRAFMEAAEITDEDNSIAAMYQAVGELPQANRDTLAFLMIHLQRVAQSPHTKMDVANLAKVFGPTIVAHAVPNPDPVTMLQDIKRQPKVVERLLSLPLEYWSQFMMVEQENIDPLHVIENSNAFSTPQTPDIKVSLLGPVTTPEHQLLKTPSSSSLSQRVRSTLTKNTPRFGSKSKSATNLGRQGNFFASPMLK
# [18] = NIH-3T3 fibroblast cytotoxicity, dose response, cytotoxicity control, cell-based, fluorescence, Alamar Blue, secondary assay (AID 2327); assay type: functional;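 note: NIH-3T3 mouse fibroblasts cultured with fluconazole at 8 µg/mL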
# [19] = C. albicans growth with fluconazole, confirmation, fluorescence, retest (AID 2467); assay type: functional, cell-based
# Sequence of Paired box protein Pax-8 (Q06710 whole entry): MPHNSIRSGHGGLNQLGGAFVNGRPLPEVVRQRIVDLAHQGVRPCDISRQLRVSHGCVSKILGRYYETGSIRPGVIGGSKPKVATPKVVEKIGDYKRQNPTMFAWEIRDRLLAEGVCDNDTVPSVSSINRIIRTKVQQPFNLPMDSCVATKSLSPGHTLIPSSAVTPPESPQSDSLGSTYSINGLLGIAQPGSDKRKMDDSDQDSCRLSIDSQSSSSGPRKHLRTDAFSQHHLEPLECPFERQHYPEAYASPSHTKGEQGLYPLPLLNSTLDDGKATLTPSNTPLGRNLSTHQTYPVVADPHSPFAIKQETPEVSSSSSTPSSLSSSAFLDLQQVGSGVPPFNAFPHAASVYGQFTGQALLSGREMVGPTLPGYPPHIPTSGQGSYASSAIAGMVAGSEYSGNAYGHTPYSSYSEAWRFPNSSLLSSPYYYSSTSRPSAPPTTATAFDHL
# Sequence of Estrogen receptor beta (Q92731 whole entry): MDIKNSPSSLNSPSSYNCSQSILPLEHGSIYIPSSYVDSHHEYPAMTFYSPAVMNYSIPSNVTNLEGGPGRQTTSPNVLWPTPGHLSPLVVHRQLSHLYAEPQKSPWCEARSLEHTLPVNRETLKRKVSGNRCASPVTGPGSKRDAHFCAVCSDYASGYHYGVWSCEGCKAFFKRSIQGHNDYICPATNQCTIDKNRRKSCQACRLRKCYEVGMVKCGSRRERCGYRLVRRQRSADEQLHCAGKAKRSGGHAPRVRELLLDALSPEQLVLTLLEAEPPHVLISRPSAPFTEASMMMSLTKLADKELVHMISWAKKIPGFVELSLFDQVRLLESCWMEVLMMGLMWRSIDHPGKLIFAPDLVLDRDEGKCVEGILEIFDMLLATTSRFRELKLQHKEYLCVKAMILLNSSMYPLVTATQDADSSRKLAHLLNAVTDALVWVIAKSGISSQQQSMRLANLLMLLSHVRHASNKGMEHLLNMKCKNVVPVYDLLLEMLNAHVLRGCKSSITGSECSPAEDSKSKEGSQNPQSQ
# Sequence of FAD-linked sulfhydryl oxidase ALR (P55789 whole entry): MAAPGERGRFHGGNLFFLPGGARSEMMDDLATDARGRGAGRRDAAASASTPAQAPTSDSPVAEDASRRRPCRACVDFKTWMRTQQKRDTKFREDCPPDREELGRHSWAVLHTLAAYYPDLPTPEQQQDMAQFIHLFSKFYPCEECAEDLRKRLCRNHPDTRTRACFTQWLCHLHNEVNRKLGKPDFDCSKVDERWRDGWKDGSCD
# Sequence of Cytochrome P450 2C19 (P33261 whole entry): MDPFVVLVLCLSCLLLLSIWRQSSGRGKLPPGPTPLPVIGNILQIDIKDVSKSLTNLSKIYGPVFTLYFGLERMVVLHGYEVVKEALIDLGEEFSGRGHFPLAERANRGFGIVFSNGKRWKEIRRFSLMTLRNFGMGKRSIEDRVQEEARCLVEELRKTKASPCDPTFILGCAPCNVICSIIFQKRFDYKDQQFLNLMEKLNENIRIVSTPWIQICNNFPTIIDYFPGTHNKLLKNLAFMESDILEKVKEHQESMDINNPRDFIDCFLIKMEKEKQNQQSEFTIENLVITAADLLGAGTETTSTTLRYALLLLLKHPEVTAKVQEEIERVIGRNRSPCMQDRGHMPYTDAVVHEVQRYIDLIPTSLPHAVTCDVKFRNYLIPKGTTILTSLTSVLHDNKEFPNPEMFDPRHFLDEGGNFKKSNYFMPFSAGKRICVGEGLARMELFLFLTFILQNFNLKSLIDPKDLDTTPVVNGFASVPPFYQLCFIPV
# Sequence of Beta-galactosidase (Q8VNN2 whole entry): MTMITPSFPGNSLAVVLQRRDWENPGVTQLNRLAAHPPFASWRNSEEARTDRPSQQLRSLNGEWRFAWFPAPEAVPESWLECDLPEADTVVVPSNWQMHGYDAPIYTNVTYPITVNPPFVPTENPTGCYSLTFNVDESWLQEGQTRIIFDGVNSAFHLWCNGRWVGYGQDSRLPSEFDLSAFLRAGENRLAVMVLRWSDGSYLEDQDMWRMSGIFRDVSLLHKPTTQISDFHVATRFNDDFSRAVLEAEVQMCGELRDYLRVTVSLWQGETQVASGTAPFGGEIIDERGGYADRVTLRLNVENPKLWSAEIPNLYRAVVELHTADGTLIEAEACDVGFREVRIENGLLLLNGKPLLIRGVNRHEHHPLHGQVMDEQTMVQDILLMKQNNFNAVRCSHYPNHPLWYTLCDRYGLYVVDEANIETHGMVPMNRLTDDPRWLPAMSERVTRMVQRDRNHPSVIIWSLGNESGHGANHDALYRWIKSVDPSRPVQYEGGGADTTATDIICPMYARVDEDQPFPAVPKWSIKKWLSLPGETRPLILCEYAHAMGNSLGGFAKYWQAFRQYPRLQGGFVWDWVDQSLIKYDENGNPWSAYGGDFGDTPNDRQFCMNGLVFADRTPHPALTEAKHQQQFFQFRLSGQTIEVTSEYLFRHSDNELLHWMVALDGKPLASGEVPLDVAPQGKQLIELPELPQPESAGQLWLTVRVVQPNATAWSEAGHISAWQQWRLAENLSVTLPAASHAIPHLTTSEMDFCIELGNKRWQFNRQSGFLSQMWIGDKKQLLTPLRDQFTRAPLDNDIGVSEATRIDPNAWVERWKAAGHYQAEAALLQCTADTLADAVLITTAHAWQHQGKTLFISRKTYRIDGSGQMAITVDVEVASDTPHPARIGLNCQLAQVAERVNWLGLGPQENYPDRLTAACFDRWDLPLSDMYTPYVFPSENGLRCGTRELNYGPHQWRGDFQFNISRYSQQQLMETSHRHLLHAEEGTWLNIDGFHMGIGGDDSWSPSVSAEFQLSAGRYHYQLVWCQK
compound,measurement,setting,value
CCN(CC)CC(=O)c1ccc(-c2ccccc2)cc1,IC50,Leucine aminopeptidase,60.2 µM (active)
same,EC50,Beta-galactosidase,> 40 µM (inactive)
same,IC50,[1],18.8 µM (active)
Cc1cccc2cc(CN(Cc3nnnn3C3CCCCC3)C3CCCC3)c3nnnn3c12,AC50,[2],2.18 µM (active)
COc1ccc(-n2nnnc2-c2cnc(N3CCCC3)nc2C(F)(F)F)cc1,AC50,[3],4.75 µM (active)
same,AC50,[4],50.8 µM (active)
same,AC50,[5],4.77 µM (active)
O=C(NCc1ccc2c(c1)OCO2)c1ccc(Br)cc1,AC50,[2],4.38 µM (active)
Cc1sc(NC(=O)C2=COCCO2)nc1-c1ccc(Cl)cc1,IC50,Protein skinhead-1,> 100 µM (inactive)
C/C(=C\C(=S)Nc1ccccc1)Nc1ccc2ccccc2c1,CC50,[6],36.2 µM (active)
Cc1cc(C(=O)Nc2cccc3c2O[C@@H](CN(C)Cc2ccc(C(=O)Nc4ccccc4N)cc2)[C@@H](C)CN([C@H](C)CO)C3=O)n(C)n1,AC50,[7],2.45 µM (active)
C[C@H](CO)N1C[C@H](C)[C@H](CN(C)Cc2ccc(Oc3ccccc3)cc2)Oc2c(NC(=O)CCCCCC(=O)Nc3ccccc3N)cccc2C1=O,AC50,[7],2.36 µM (active)
C[C@H]1CN([C@@H](C)CO)C(=O)c2cc(NS(=O)(=O)c3ccc(Cl)cc3)ccc2O[C@H]1CN(C)Cc1ccc(Cl)c(Cl)c1,AC50,Paired box protein Pax-8,7.5 µM (active)
same,AC50,[8],> 70 µM (inactive)
O=S(=O)(c1ccc(N2CCCC2)cc1)C(F)(F)F,IC50,Protein skinhead-1,> 100 µM (inactive)
C[C@H](CO)N1C[C@H](C)[C@H](CN(C)S(=O)(=O)c2cccs2)Oc2c(NC(=O)c3cnccn3)cccc2C1=O,AC50,[7],2.44 µM (active)
COc1ccccc1NC(=O)c1ccc(CN2CCOCC2)cc1,IC50,Protein skinhead-1,> 100 µM (inactive)
C[C@@H]1CN([C@@H](C)CO)C(=O)Cc2cc(NC(=O)Nc3ccc(C(F)(F)F)cc3)ccc2O[C@@H]1CN(C)Cc1ccc(Cl)c(Cl)c1,AC50,[7],1.85 µM (active)
C[C@H](CO)N1C[C@H](C)[C@@H](CN(C)C(=O)C2CCCCC2)OCCCC[C@H](C)Oc2ccc(NS(=O)(=O)c3ccc(Cl)cc3)cc2C1=O,AC50,Paired box protein Pax-8,8.51 µM (active)
same,AC50,[9],24.4 µM (active)
CCOc1ccc2nc(NC(=O)c3ccc(S(=O)(=O)N4CCOCC4)cc3)sc2c1,AC50,Cytochrome P450 2C19,2.82 µM (inconclusive)
same,IC50,Protein skinhead-1,> 100 µM (inactive)
C[C@@H]1CN([C@H](C)CO)C(=O)c2cc(NC(=O)Nc3ccc(C(F)(F)F)cc3)ccc2O[C@@H](C)CCCCO[C@H]1CN(C)C(=O)NC1CCCCC1,AC50,Paired box protein Pax-8,2.8 µM (active)
same,AC50,[9],27.4 µM (active)
same,AC50,[8],47.2 µM (active)
C=CCn1c(SCc2cc(C(=O)OC)c(C)o2)nnc1-c1ccncc1,IC50,Estrogen receptor beta,> 50 µM (not active)
C[C@H]1CN([C@@H](C)CO)C(=O)Cc2cc(NC(=O)Nc3cccc4ccccc34)ccc2O[C@@H]1CN(C)Cc1ccc(C(F)(F)F)cc1,AC50,[7],2.3 µM (active)
CCNc1nc(NC(C)(C)C)nc(N2CCCC2)n1,EC50,[10],25 µM (active)
same,EC50,[11],32.9 µM (active)
CC1(c2cc([N+](=O)[O-])cc([N+](=O)[O-])c2)CC(C)(C)N(C(=O)c2ccccc2)c2ccccc21 (centres undefined),EC50,[12],0.17 µM (active)
same,CC50,[6],> 40 µM (active)
same,EC50,[13],10.7 µM (active)
O=C(Nc1ccc(SC(F)F)cc1)c1ccccc1F,CC50,[14],> 50 µM (active)
same,IC50,Protein skinhead-1,23.1 µM (active)
CC(C)N(C(=O)CO/N=C/c1cccc([N+](=O)[O-])c1)C(C)C,CC50,[15],> 40 µM (active)
c1ccc(-c2nc(-c3ccncc3)no2)cc1,IC50,Protein skinhead-1,16.3 µM (active)
Nc1cc([N+](=O)[O-])ccc1Nc1ccc(O)cc1,CC50,[6],> 40 µM (active)
same,AC50,[16],0.269 µM (active)
same,IC50,[17],38.2 µM (active)
CCCCc1ccc(NC(=O)CC(C)(C)C)cc1,CC50,[15],> 40 µM (active)
COC(=O)c1ccc(C(=O)OC)c(NC(=O)CSc2cccc[n+]2[O-])c1,EC50,[18],> 160 µM (inconclusive)
same,EC50,[19],1.34 µM (active)
same,CC50,[6],> 40 µM (active)
C[C@@H]1CN([C@H](C)CO)C(=O)c2cccc(NC(=O)Nc3ccc(C(F)(F)F)cc3)c2O[C@@H]1CN(C)Cc1ccc(Cl)c(Cl)c1,AC50,[7],2.26 µM (active)

# Reference: ChEMBL document CHEMBL1201862, “PubChem BioAssay data set” (2004)
